Consider one compound from patent publication US20090110739A1, “Targeted cancer chemotherapy using synthetic nanoparticles” (University of North Texas Health Science Center at Forth …, priority 2007, published 2009).

By IC50 is commonly meant the concentration that inhibits the measured activity by half.

Common to all, as to assay type: cell-based
One experiment deals with OV1063. The experiment can be described thus: MTT cytotoxicity, OV1063 cancer cell line. Particulars: Homo sapiens, OV-1063; OV1063 cells.
Another experiment concerns OVCAR 3. The experiment can be described thus: MTT cytotoxicity, OVCAR 3 cancer cell line. Particulars: Homo sapiens; OVCAR 3 cells.
The next experiment deals with DU145. The experiment is described as follows: MTT cytotoxicity, DU145 cancer cell line. Particulars: Homo sapiens, DU-145; DU145 cells.
In another experiment the test system is cancer cells. The experiment can be described thus: Uptake of paclitaxel encapsulated in sHDL nanoparticles by cancer cells. Particulars: encapsulated in the delivery particles; HDL receptors; FIG. 7.

As for `CC(=O)O[C@H]1C(=O)[C@@]2(C)[C@H]([C@H](OC(=O)c3ccccc3)[C@]3(O)C[C@H](OC(=O)[C@H](O)[C@@H](NC(=O)c4ccccc4)c4ccccc4)C(C)=C1C3(C)C)[C@]1(OC(C)=O)CO[C@@H]1C[C@@H]2O` [Ptx, paclitaxel], the IC50 in the experiment on OV1063 amounted to 14.2 µM; in the experiment on OVCAR 3 it was 70.3 µM; in the experiment on DU145, 14.2 µM. Also, in the experiment with cancer cells, the “uptake by cancer cells” value was “taken up by cancer cells via this receptor mediated mechanism”.
